# Reference: article PMC8304783, “Antiadhesive Properties of Imidazolium Ionic Liquids Based on (−)-Menthol Against Candida spp” (International Journal of Molecular Sciences, 2021)
# Legend:
# Type in all cases: cell-based
# [1] = system: C. albicans SC5314; assay: Minimal inhibitory and fungicidal concentrations (broth microdilution, CLSI M27-A3 modified); settings: Candida albicans, 28 °C
# Procedure: (§1) Experiments were performed according to the Clinical and Laboratory Standards Institute (2008), 3rd ed. M27-A3 [51], with modifications described previously. Briefly, MICs were determined by serially diluting ILs in YPD medium in sterile 96-well plates (Sarstedt) and inoculating with fungal suspensions (final OD600 per well = 0.01). After incubation (48 h; 28 °C), the OD600 was measured (ASYS UVM 340 Biogenet). […] Each well was then replated on YPD agar and incubated for 5 days at 28 °C.
# [2] = system: C. glabrata ATCC90030; assay: as above; settings: Nakaseomyces glabratus, 28 °C
# Procedure: as §1
# [3] = system: C. krusei ATCC6258; assay: as above; settings: Pichia kudriavzevii, 28 °C
# Procedure: as §1
# [4] = system: C. parapsilosis CBS10947; assay: as above; settings: Lodderomyces parapsilosis, 28 °C
# Procedure: as §1
# [5] = system: C. albicans; assay: Detachment of adherent cells from polystyrene (crystal violet); settings: C. albicans on polystyrene, 2 h treatment; highest concentration (4 × MIC)
# Procedure: (§2) Thus, for the evaluation of ILs on fungal adhesion, higher concentrations were used, corresponding to 1, 2 and 4 times the MIC90 values (Figure 1).
# (§3) Figure 1 Detachment of adherent Candida spp. cells after 2 h incubation on polystyrene surfaces by ionic liquids (ILs) (A) or amphotericin B (AMB) (B) (means ± SD; n = 3). Results are presented as percentage of adherent cells relative to untreated controls (100% adhesion). Statistical analysis of detachment at each concentration was performed towards corresponding control experiments (fungi untreated by ILs or AMB = 100% adhesion) (*, p < 0.05 and **, p < 0.01).
# (§4) Post-adherence treatment with ILs was performed in a similar manner to that described previously by our team. Candida spp. suspensions were prepared by centrifuging YPD-grown cultures and resuspending fungal mass in PBS to an OD600 = 0.6. Sterile 96-well plates were inoculated with the prepared suspensions and incubated for 2 h at 37 °C to induce fungal adhesion. Afterwards, adherent cells were washed with PBS to remove planktonic cells and treated with ILs (concentrations equivalent to 1, 2 or 4 × MIC90 for each fungi) for 2 h at 37 °C. Then, each well was washed with PBS and adherent cells were fixed with 0.1% CV solution for 5 min, and washed with PBS. Cells were then treated with a solution of isopropanol 0.04 N HCL with 0.1% SDS to permeabilize adherent cells and release the CV dye. The absorbance of CV was measured at 590 nm (ASYS UVM 340 Biogenet). The percentage of cells that were removed was determined in comparison to adherent cells treated with PBS only (designated 100% adhesion).
# [6] = system: C. glabrata; assay: as above; settings: C. glabrata on polystyrene, 2 h treatment; highest concentration (4 × MIC)
# Procedure: as §2, §3, §4
# [7] = system: C. krusei; assay: as above; settings: C. krusei on polystyrene, 2 h treatment; highest concentration (4 × MIC)
# Procedure: as §2, §3, §4
# [8] = system: C. parapsilosis; assay: as above; settings: C. parapsilosis on polystyrene, 2 h treatment; highest concentration (4 × MIC)
# Procedure: as §2, §3, §4
# [9] = system: C. albicans; assay: Plasma membrane permeabilization (propidium iodide staining); settings: 2 h treatment at MIC90, PI staining, mean ± SD, n = 3
# Procedure: (§5) We tested ILs for their activity in permeabilizing fungi plasma membranes (PMs), by treating cells with concentrations of ILs corresponding to their MIC90 values (Table 2).
# (§6) The assessment of PM permeability was performed as described previously, with modifications. Briefly, 3 mL of Candida spp. cell suspensions (OD600 = 0.1) in PBS were mixed with ILs (concentrations equivalent to MIC90 against each fungi). Samples were incubated for 2 h at 37 °C, washed with PBS and stained with PI to the final dye concentration of 6 × 10^−6 M for 5 min. Then, cell suspensions were washed with PBS and observed under the Zeiss Axio Imager A2 microscope equipped with the Zeiss Axiocam 503 mono microscope camera and Zeiss HBO100 mercury lamp. The percentage of permeabilized cells was evaluated by counting PI positive cells out of one hundred in three independent repetitions for each experiment.
# [10] = system: C. glabrata; assay: as above; settings: 2 h treatment at MIC90, PI staining, mean ± SD, n = 3
# Procedure: as §5, §6
# [11] = system: C. krusei; assay: as above; settings: 2 h treatment at MIC90, PI staining, mean ± SD, n = 3
# Procedure: as §5, §6
# [12] = system: C. parapsilosis; assay: as above; settings: 2 h treatment at MIC90, PI staining, mean ± SD, n = 3
# Procedure: as §5, §6
# [13] = system: sheep erythroid PMs; assay: Hemolysis assay; settings: AMB conc. 0.25 µM; sheep RBCs; 1% SDS = 100% hemolysis
# Procedure: To examine any possible toxic effect towards animal cells, ILs were tested for their lytic activity on sheep erythroid PMs, in comparison to AMB (Table 3). For this part of study, higher concentrations were selected, corresponding to MFC values of tested fungi (12.5; 25 and 50 µM in case of ILs, and 0.25; 0.5 and 1 µM in case of AMB, Table 1). The compounds were ranked in terms of hemolytic activity as follows: 1a > 1b > 2a. IL with alkoxymethyl chain (2a) produced <5% hemolysis, regardless of the concentration used. Compounds with alkyl substituents (1a and 1b) were more hemolytic in 12.5 than in 25 µM concentrations, and in the highest concentration (50 µM), both compounds produced >10% and >5% hemolysis, respectively.
# ILs were tested for hemolytic activity, as described previously. Briefly, 5 mL of fresh sheep blood was centrifuged (2000 rpm, 15 min), washed with PBS and resuspended in PBS to achieve hematocrit level of 50%. Red blood cells (RBCs) were treated with ILs (concentrations = 12.5, 25 and 50 µM) for 2 h at 37 °C. Afterwards, RBCs were centrifuged (2000 rpm, 5 min) and the absorbance of the supernatant was measured at 540 nm (ASYS UVM 340 Biogenet). The percentage of hemolysis was determined in comparison to the hemoglobin absorbance released by a 1% SDS solution (100% hemolysis).
# [14] = 120 h, replated on YPD agar, 5 days, read-out: Minimal fungicidal concentration (MFC)
# [15] = ≥90% growth inhibition, 48 h, YPD, read-out: Minimal inhibitory concentration (MIC90)
structure (smiles),measurement,setting,value
"C[C@@H]1[C@H](O)[C@@H](C)/C=C/C=C/C=C/C=C/C=C/C=C/C=C/[C@H](O[C@@H]2O[C@H](C)[C@@H](O)[C@H](N)[C@@H]2O)C[C@@H]2O[C@](O)(C[C@@H](O)C[C@@H](O)[C@H](O)CC[C@@H](O)C[C@@H](O)CC(=O)O[C@H]1C)C[C@H](O)[C@H]2C(=O)O [AMB, amphotericin B, reference compound]",MFC,[1]; [14],0.5 µM
same,MIC90,[1]; [15],0.25 µM
same,MFC,[2]; [14],0.5 µM
same,MIC90,[2]; [15],0.25 µM
same,MFC,[3]; [14],1 µM
same,MIC90,[3]; [15],0.5 µM
same,MFC,[4]; [14],0.5 µM
same,MIC90,[4]; [15],0.25 µM
same,Reduction of adhesion,[5],~ 27%
same,Reduction of adhesion,[6],~ 15%
same,Reduction of adhesion,[7],~ 20%
same,Reduction of adhesion,[8],~ 20%
same,Percentage of cells with permeabilized PMs,[9],37.3 ± 4.17 %
same,Percentage of cells with permeabilized PMs,[10],43.2 ± 2.15 %
same,Percentage of cells with permeabilized PMs,[11],38.2 ± 10.7 %
same,Percentage of cells with permeabilized PMs,[12],32.38 ± 3.15 %
same,Hemolytic activity,[13],86.7 ± 0.43 %
